Data published in patent US20120219615A1, “Therapeutic Use of a TLR Agonist and Combination Therapy” (The Trustees of the University of Pennsylvania, priority 2010, published 2012).

Tested on: G-CSF, MCP-1, MIP-1β, TNFα
Test: Phase I clinical study: pharmacodynamic response, plasma immune mediators (MAP)
Assay type: in vivo
Conditions: human, s.c., first dose
Protocol: Study Procedures: VTX-2337 was administered weekly via subcutaneous injection on Days 1, 8, and 15 of a 28-day dosing cycle for two cycles. Using a modified Fibonacci dose-escalation scheme, successive cohorts received doses ranging from 0.1 mg/m^2 to 3.9 mg/m^2 of VTX-2337. Plasma samples were collected for pharmacokinetic analysis after the first dose of the first treatment cycle and for pharmacodynamic analyses after the first dose of the first and second treatment cycles.
To evaluate the pharmacodynamic (PD) response to VTX-2337, blood was collected at 0, 4, 8, 24 hours after subcutaneous administration of the first dose of the first cycle of VTX-2337. Plasma levels of immune mediators were quantified using the human multiple analyte panel (MAP), version 1.8 (Rules Based Medicine). […] Levels of mediators in plasma collected from 9 healthy volunteers are shown for comparison to the oncology population. […]

With `CCCN(CCC)C(=O)C1=Cc2ccc(-c3ccc(C(=O)N4CCCC4)cc3)cc2N=C(N)C1` [VTX-2337, 2-amino-N,N-dipropyl-8-(4-(pyrrolidine-1-carbonyl)phenyl)-3H-benzo[b]azepine-4-carboxamide] the G-CSF plasma level (Cohort 5 (1.3 mg/m^2), 0 Hr) was 5.0 ± 0.3 pg/mL, the MCP-1 plasma level (Cohort 5 (1.3 mg/m^2), 0 Hr) was 227 ± 79.8 pg/mL and the MIP-1β plasma level (Cohort 5 (1.3 mg/m^2), 0 Hr) was 182 ± 36.9 pg/mL. It also gave a TNFα plasma level (Cohort 5 (1.3 mg/m^2), 0 Hr) of 9.3 ± 4.1 pg/mL, a G-CSF plasma level (Cohort 5 (1.3 mg/m^2), 4 Hr) of 20.5 ± 24.7 pg/mL and an MCP-1 plasma level (Cohort 5 (1.3 mg/m^2), 4 Hr) of 911 ± 951 pg/mL. The MIP-1β plasma level (Cohort 5 (1.3 mg/m^2), 4 Hr) was 543 ± 477 pg/mL, the TNFα plasma level (Cohort 5 (1.3 mg/m^2), 4 Hr) was 14.9 ± 12.5 pg/mL and the G-CSF plasma level (Cohort 5 (1.3 mg/m^2), 8 Hr) was 196 ± 145 pg/mL. It also gave an MCP-1 plasma level (Cohort 5 (1.3 mg/m^2), 8 Hr) of 954 ± 638 pg/mL, an MIP-1β plasma level (Cohort 5 (1.3 mg/m^2), 8 Hr) of 688 ± 635 pg/mL and a TNFα plasma level (Cohort 5 (1.3 mg/m^2), 8 Hr) of 21.6 ± 13.3 pg/mL. The G-CSF plasma level (Cohort 5 (1.3 mg/m^2), 24 Hr) was 30.8 ± 10.4 pg/mL, the MCP-1 plasma level (Cohort 5 (1.3 mg/m^2), 24 Hr) was 246 ± 158 pg/mL and the MIP-1β plasma level (Cohort 5 (1.3 mg/m^2), 24 Hr) was 228 ± 70.1 pg/mL. It also gave a TNFα plasma level (Cohort 5 (1.3 mg/m^2), 24 Hr) of 15.3 ± 4.2 pg/mL, a G-CSF plasma level (Cohort 6 (2.0 mg/m^2), 0 Hr) of 9.9 ± 8.2 pg/mL and an MCP-1 plasma level (Cohort 6 (2.0 mg/m^2), 0 Hr) of 265 ± 161 pg/mL. It also gave an MIP-1β plasma level (Cohort 6 (2.0 mg/m^2), 0 Hr) of 136 ± 28.3 pg/mL, a TNFα plasma level (Cohort 6 (2.0 mg/m^2), 0 Hr) of 4.4 ± 1.6 pg/mL and a G-CSF plasma level (Cohort 6 (2.0 mg/m^2), 4 Hr) of 14.0 ± 4.3 pg/mL. It also gave an MCP-1 plasma level (Cohort 6 (2.0 mg/m^2), 4 Hr) of 247 ± 80.5 pg/mL, an MIP-1β plasma level (Cohort 6 (2.0 mg/m^2), 4 Hr) of 196 ± 62.5 pg/mL and a TNFα plasma level (Cohort 6 (2.0 mg/m^2), 4 Hr) of 8.4 ± 1.5 pg/mL. The G-CSF plasma level (Cohort 6 (2.0 mg/m^2), 8 Hr) was 134 ± 149 pg/mL, the MCP-1 plasma level (Cohort 6 (2.0 mg/m^2), 8 Hr) was 722 ± 224 pg/mL and the MIP-1β plasma level (Cohort 6 (2.0 mg/m^2), 8 Hr) was 289 ± 111 pg/mL. It also gave a TNFα plasma level (Cohort 6 (2.0 mg/m^2), 8 Hr) of 10.0 ± 2.3 pg/mL, a G-CSF plasma level (Cohort 6 (2.0 mg/m^2), 24 Hr) of 42.2 ± 31.6 pg/mL and an MCP-1 plasma level (Cohort 6 (2.0 mg/m^2), 24 Hr) of 320 ± 244 pg/mL. It also gave an MIP-1β plasma level (Cohort 6 (2.0 mg/m^2), 24 Hr) of 155 ± 26 pg/mL, a TNFα plasma level (Cohort 6 (2.0 mg/m^2), 24 Hr) of 10.0 ± 0.2 pg/mL and a G-CSF plasma level (Cohort 7 (2.8 mg/m^2), 0 Hr) of 7.4 ± 3.2 pg/mL. For the same molecule, the MCP-1 plasma level (Cohort 7 (2.8 mg/m^2), 0 Hr) was 250 ± 110 pg/mL, the MIP-1β plasma level (Cohort 7 (2.8 mg/m^2), 0 Hr) was 136 ± 22 pg/mL and the TNFα plasma level (Cohort 7 (2.8 mg/m^2), 0 Hr) was 6.1 ± 1.8 pg/mL. The G-CSF plasma level (Cohort 7 (2.8 mg/m^2), 4 Hr) was 12.4 ± 2.4 pg/mL, the MCP-1 plasma level (Cohort 7 (2.8 mg/m^2), 4 Hr) was 719 ± 433 pg/mL and the MIP-1β plasma level (Cohort 7 (2.8 mg/m^2), 4 Hr) was 517 ± 305 pg/mL. It also gave a TNFα plasma level (Cohort 7 (2.8 mg/m^2), 4 Hr) of 10.9 ± 1.4 pg/mL, a G-CSF plasma level (Cohort 7 (2.8 mg/m^2), 8 Hr) of 553 ± 246 pg/mL and an MCP-1 plasma level (Cohort 7 (2.8 mg/m^2), 8 Hr) of 2043 ± 760 pg/mL. For the same molecule, the MIP-1β plasma level (Cohort 7 (2.8 mg/m^2), 8 Hr) was 646 ± 216 pg/mL, the TNFα plasma level (Cohort 7 (2.8 mg/m^2), 8 Hr) was 12.8 ± 2.5 pg/mL and the G-CSF plasma level (Cohort 7 (2.8 mg/m^2), 24 Hr) was 59.0 ± 31.7 pg/mL. It also gave an MCP-1 plasma level (Cohort 7 (2.8 mg/m^2), 24 Hr) of 273 ± 109 pg/mL, an MIP-1β plasma level (Cohort 7 (2.8 mg/m^2), 24 Hr) of 152 ± 82 pg/mL and a TNFα plasma level (Cohort 7 (2.8 mg/m^2), 24 Hr) of 8.8 ± 4.1 pg/mL. It also gave a G-CSF plasma level (Cohort 8 (3.9 mg/m^2), 0 Hr) of 29.1 ± 55.8 pg/mL, an MCP-1 plasma level (Cohort 8 (3.9 mg/m^2), 0 Hr) of 249 ± 56 pg/mL and an MIP-1β plasma level (Cohort 8 (3.9 mg/m^2), 0 Hr) of 236 ± 111 pg/mL. For the same molecule, the TNFα plasma level (Cohort 8 (3.9 mg/m^2), 0 Hr) was 14.9 ± 9.1 pg/mL, the G-CSF plasma level (Cohort 8 (3.9 mg/m^2), 4 Hr) was 83.3 ± 104.7 pg/mL and the MCP-1 plasma level (Cohort 8 (3.9 mg/m^2), 4 Hr) was 5227 ± 8362 pg/mL. The MIP-1β plasma level (Cohort 8 (3.9 mg/m^2), 4 Hr) was 7793 ± 10824 pg/mL, the TNFα plasma level (Cohort 8 (3.9 mg/m^2), 4 Hr) was 56.9 ± 48.3 pg/mL and the G-CSF plasma level (Cohort 8 (3.9 mg/m^2), 8 Hr) was 2151 ± 3586 pg/mL. It also gave an MCP-1 plasma level (Cohort 8 (3.9 mg/m^2), 8 Hr) of 8128 ± 10588 pg/mL, an MIP-1β plasma level (Cohort 8 (3.9 mg/m^2), 8 Hr) of 2259 ± 2456 pg/mL and a TNFα plasma level (Cohort 8 (3.9 mg/m^2), 8 Hr) of 42.7 ± 27.4 pg/mL. It also gave a G-CSF plasma level (Cohort 8 (3.9 mg/m^2), 24 Hr) of 141.4 ± 228.8 pg/mL, an MCP-1 plasma level (Cohort 8 (3.9 mg/m^2), 24 Hr) of 532 ± 571 pg/mL and an MIP-1β plasma level (Cohort 8 (3.9 mg/m^2), 24 Hr) of 276 ± 108 pg/mL. For the same molecule, the TNFα plasma level (Cohort 8 (3.9 mg/m^2), 24 Hr) was 24.2 ± 9.4 pg/mL.
